{
  "source": "patent US6521814B1",
  "about": "“Use of ligands for treatment of diseases responsive to retinoids” (Institut National de la Santa et de la Recherche Medicale, priority 1997, dated 2003)",
  "key": {"RARγ−/− F9 cells [1]": {"system": "RARγ−/− F9 cells", "assay": "Apoptosis of F9 cells (Hoechst 33258 staining, FACS)", "format": "cell-based, murine", "conditions": "6 d", "protocol": "(§1) Apoptosis was analyzed by both Hoechst staining of nuclei and FACS® analysis, as previously described (Clifford, J., et al., EMBO J. 15:4142-4155 (1996))."}, "WT F9 cells [2]": {"system": "WT F9 cells", "assay": "Apoptosis of F9 cells (Hoechst 33258 staining, FACS)", "format": "cell-based, murine", "conditions": "6 d", "protocol": "as §1"}, "RXRα−/− F9 cells [3]": {"system": "RXRα−/− F9 cells", "assay": "Apoptosis of F9 cells (Hoechst 33258 staining, FACS)", "format": "cell-based, murine", "conditions": "100 nM, 6 d"}, "RARα−/− F9 cells [4]": {"system": "RARα−/− F9 cells", "assay": "Apoptosis of F9 cells (Hoechst 33258 staining, FACS)", "format": "cell-based, murine", "parameters": "key: (−): no visible effect", "conditions": "6 d", "protocol": "as §1"}, "RXRα−/−/RARα−/− F9 cells [5]": {"system": "RXRα−/−/RARα−/− F9 cells", "assay": "Apoptosis of F9 cells (Hoechst 33258 staining, FACS)", "format": "cell-based, murine", "conditions": "100 nM, 6 d"}, "RARα−/− F9 cells [6]": {"system": "RARα−/− F9 cells", "assay": "Morphological differentiation of F9 cell aggregates into visceral endoderm (VE)-like cells (morphology, RT-PCR of markers)", "format": "cell-based, murine", "parameters": "key to proportion of outer layer of cells displaying VE morphology: +++: more than 80%; ++: 50-80%; +: 10-50%; ±: not more than 10%; (−): no visible effect", "conditions": "1 μM, 10 d", "text": "(§2) Similarly, after 10 d of treatment, >80% of the outer layer of RARα^−/− and RXRα^−/−/RARα^−/− cell aggregates differentiated into VE-like cells, which were indistinguishable from those of WT and RXRα^−/− cells (FIG. 23A, compare f with panels b and d; and Table 9). […] To exclude the possibility that this very poor differentiation of the RXRα^−/−/RARγ^−/− cells could be due to some clonal variation, rather than the presence of the RXRα-null mutation in the RARγ-null background, we expressed the RXRα cDNA in RXRα^−/−/RARγ^−/− cells.\n(§3) F9 cells were cultured and induced to differentiate into primitive, parietal and visceral endoderm-like cells as previously described (Boylan, J., et al., Proc. Natl. Acad. Sci. USA 90:9601-9605 (1993); Clifford, J., et al., EMBO J. 15:4142-4155 (1996)).\n(§4) RNA preparation, RT-PCR, and Southern blotting were performed as previously described (Bouillet, P., et al., Dev. Biol. 170:420-433 (1995); Roy, B., et al., Mol. Cell. Biol. 15:6481-6487 (1995)). The PCR primers and end-labeled oligonucleotide probes for collagen IVα1, laminin B1, α-fetoprotein (AFP), and 36B4, were described previously (Clifford, J., et al ., EMBO J. 15:4142-4155 (1996)). Transcript levels were quantified using a BAS 2000 bioimaging analyzer (Fuji Ltd., Tokyo, Japan), and were normalized to the corresponding 36B4 signals."}, "WT F9 cells [7]": {"system": "WT F9 cells", "assay": "Morphological differentiation of F9 cell aggregates into visceral endoderm (VE)-like cells (morphology, RT-PCR of markers)", "format": "cell-based, murine", "parameters": "key to proportion of outer layer of cells displaying VE morphology: +++: more than 80%; ++: 50-80%; +: 10-50%; ±: not more than 10%; (−): no visible effect", "conditions": "WT; 1 μM; 10 d", "text": "as §2, §3, §4"}, "RARγ−/− F9 cells [8]": {"system": "RARγ−/− F9 cells", "assay": "Morphological differentiation of F9 cell aggregates into visceral endoderm (VE)-like cells (morphology, RT-PCR of markers)", "format": "cell-based, murine", "parameters": "key to proportion of outer layer of cells displaying VE morphology: +++: more than 80%; ++: 50-80%; +: 10-50%; ±: not more than 10%; (−): no visible effect", "conditions": "RARγ−/−; 1 μM; 10 d", "protocol": "as §3, §4"}, "RARα−/− F9 cells [9]": {"system": "RARα−/− F9 cells", "assay": "Proliferation of F9 cells in monolayer culture (cell counting, [3H]thymidine incorporation, cell cycle FACS)", "format": "cell-based, murine", "conditions": "1 μM, 6 d", "protocol": "(§5) Cells were plated in triplicate 3-cm culture wells (5×10^2 cells per well), and cell counting experiments were performed as previously described (Clifford, J., et al., EMBO J. 15:4142-4155 (1996)). [^3H]Thymidine incorporation assays were performed essentially as described (Clifford, J., et al., EMBO J. 15:4142-4155 (1996)), with the following modifications. […] The cell cycle profile of WT and mutant cells was determined as previously described (Clifford, J., et al. EMBO J. 15:4142-4155 (1996))."}, "RARγ−/− F9 cells [10]": {"system": "RARγ−/− F9 cells", "assay": "Proliferation of F9 cells in monolayer culture (cell counting, [3H]thymidine incorporation, cell cycle FACS)", "format": "cell-based, murine", "conditions": "1 μM, 6 d", "protocol": "as §5"}, "WT F9 cells [11]": {"system": "WT F9 cells", "assay": "Proliferation of F9 cells in monolayer culture (cell counting, [3H]thymidine incorporation, cell cycle FACS)", "format": "cell-based, murine", "conditions": "1 μM, 6 d", "protocol": "as §5"}, "RXRα−/− F9 cells [12]": {"system": "RXRα−/− F9 cells", "assay": "Proliferation of F9 cells in monolayer culture (cell counting, [3H]thymidine incorporation, cell cycle FACS)", "format": "cell-based, murine", "conditions": "1 μM, 6 d"}, "RXRα−/−/RARα−/− F9 cells [13]": {"system": "RXRα−/−/RARα−/− F9 cells", "assay": "Proliferation of F9 cells in monolayer culture (cell counting, [3H]thymidine incorporation, cell cycle FACS)", "format": "cell-based, murine", "conditions": "1 μM, 6 d"}, "RXRα−/−/RARγ−/− F9 cells": {"system": "RXRα−/−/RARγ−/− F9 cells", "assay": "Proliferation of F9 cells in monolayer culture (cell counting, [3H]thymidine incorporation, cell cycle FACS)", "format": "cell-based, murine", "conditions": "1 μM, 6 d"}, "mouse RXRγ (mouse)": {"target": "mouse RXRγ (mouse) (UniProt P28705)", "sequence (P28705 whole entry)": "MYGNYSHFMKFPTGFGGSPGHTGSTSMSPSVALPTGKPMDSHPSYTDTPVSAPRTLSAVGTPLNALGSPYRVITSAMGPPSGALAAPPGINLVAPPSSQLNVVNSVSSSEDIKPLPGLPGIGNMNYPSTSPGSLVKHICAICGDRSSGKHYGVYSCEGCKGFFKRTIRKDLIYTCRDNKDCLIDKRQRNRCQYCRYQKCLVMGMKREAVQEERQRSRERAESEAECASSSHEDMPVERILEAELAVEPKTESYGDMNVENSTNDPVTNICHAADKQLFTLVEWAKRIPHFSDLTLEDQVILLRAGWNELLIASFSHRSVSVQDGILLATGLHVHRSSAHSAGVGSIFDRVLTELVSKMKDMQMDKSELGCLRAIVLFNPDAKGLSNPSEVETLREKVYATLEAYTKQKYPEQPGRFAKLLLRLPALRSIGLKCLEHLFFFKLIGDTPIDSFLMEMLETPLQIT", "assay": "cell-based or functional assay"}},
  "data": [
    {"molecule": "CC1(C)CCC(C)(C)c2cc(NC(=O)c3ccc(C(=O)O)cc3)ccc21", "note": "[panRAR agonist]", "values": [
      {"measurement": "proportion of apoptotic nuclei and subcellular fragments (Hoechst 33258)", "setting": "RARγ−/− F9 cells [1]; 100 nM", "result": "± (<1%)"},
      {"measurement": "proportion of apoptotic nuclei and subcellular fragments (Hoechst 33258)", "setting": "WT F9 cells [2]; 100 nM", "result": "+ (>1-10%)"},
      {"measurement": "proportion of apoptotic nuclei and subcellular fragments (Hoechst 33258)", "setting": "RXRα−/− F9 cells [3]", "result": "±* (asterisks less than that in combination with 1 μM panRXR agonist)"},
      {"measurement": "proportion of apoptotic nuclei and subcellular fragments (Hoechst 33258)", "setting": "RARα−/− F9 cells [4]; 100 nM", "result": "+ (>1-10%)"},
      {"measurement": "proportion of apoptotic nuclei and subcellular fragments (Hoechst 33258)", "setting": "RXRα−/−/RARα−/− F9 cells [5]", "result": "±* (asterisks less than that in combination with 1 μM panRXR agonist)"}
    ]},
    {"molecule": "CC1(C)CCC(C)(C)c2cc(C3(c4ccc(C(=O)O)cc4)OCCO3)ccc21", "note": "[panRXR agonist]", "values": [
      {"measurement": "proportion of outer layer of cells displaying VE morphology", "setting": "RARα−/− F9 cells [6]", "result": "(−)"},
      {"measurement": "proportion of outer layer of cells displaying VE morphology", "setting": "WT F9 cells [7]", "result": "(−)"},
      {"measurement": "proportion of outer layer of cells displaying VE morphology", "setting": "RARγ−/− F9 cells [8]", "result": "(−)"},
      {"measurement": "number of cells in percent relative to cells grown in 0.1% ethanol", "setting": "RARα−/− F9 cells [9]", "result": 100, "unit": "%"},
      {"measurement": "number of cells in percent relative to cells grown in 0.1% ethanol", "setting": "RARγ−/− F9 cells [10]", "result": 100, "unit": "%"},
      {"measurement": "number of cells in percent relative to cells grown in 0.1% ethanol", "setting": "WT F9 cells [11]", "result": 100, "unit": "%"},
      {"measurement": "number of cells in percent relative to cells grown in 0.1% ethanol", "setting": "RXRα−/− F9 cells [12]", "result": 100, "unit": "%"},
      {"measurement": "number of cells in percent relative to cells grown in 0.1% ethanol", "setting": "RXRα−/−/RARα−/− F9 cells [13]", "result": 100, "unit": "%"},
      {"measurement": "number of cells in percent relative to cells grown in 0.1% ethanol", "setting": "RXRα−/−/RARγ−/− F9 cells", "result": 100, "unit": "%"},
      {"measurement": "proportion of apoptotic nuclei and subcellular fragments (Hoechst 33258)", "setting": "RARγ−/− F9 cells [1]; 1 μM", "result": "(−)"},
      {"measurement": "proportion of apoptotic nuclei and subcellular fragments (Hoechst 33258)", "setting": "WT F9 cells [2]; 1 μM", "result": "(−)"},
      {"measurement": "proportion of apoptotic nuclei and subcellular fragments (Hoechst 33258)", "setting": "RARα−/− F9 cells [4]; 1 μM", "result": "(−)"}
    ]},
    {"molecule": "mouse RARα (from UniProt P11416 1-462) (receptor)", "values": [
      {"measurement": "CAT activity of the C1 reporter (D2R promoter) in COS-1 cells cotransfected with RARα and RXRγ, in the presence of t-RA and 9-cis-RA", "setting": "mouse RXRγ (mouse)", "result": 45, "unit": "fold"},
      {"measurement": "CAT activity of the C2 reporter in COS-1 cells coexpressing RARα/RXRγ, in the presence of t-RA and 9-cis-RA", "setting": "mouse RXRγ (mouse)", "result": 66, "unit": "fold"},
      {"measurement": "CAT activity of the C3 reporter (D2R RARE upstream of the TK promoter) in COS-1 cells cotransfected with RARα/RXRγ, in the presence of t-RA and 9-cis-RA", "setting": "mouse RXRγ (mouse)", "result": 11, "unit": "fold"}
    ]}
  ]
}
